The text below walks through data of ChEMBL document CHEMBL6103628, “Structural Optimization of Covalent Inhibitors for Deubiquitinase ChlaDUB1 of Chlamydia trachomatis as Antibiotic Agents” (J Med Chem, 2025).

As a reminder, the inhibition is the change of the read-out against control, counted positive when it falls. By Ki is commonly meant the dissociation constant of the complex between target and ligand, obtained from inhibition or displacement.

In brackets after ≈: the same amount, converted by molar mass. Activity calls are given as the source filed them. No cut-off for these calls is given here.

One series relates to HEp-2. In words: Cytotoxicity against human HEp-2 cells assessed as reduction in cell viability at 4 to 256 ug/mL measured after 20 hrs by XTT assay. The format is toxicity, cell-based. The note with it: hep-2, 20 h, dose 4-256 µg/ml. On the technique in general: Tetrazolium dyes change colour on reduction, which living cells bring about.
The target in series [1] is T1, Deubiquitinase and deneddylase Dub1 (Chlamydia trachomatis serovar L2 (strain ATCC VR-902B / DSM 19102 /434/Bu), UniProt B0B9A0).
T1 sequence (B0B9A0 whole entry): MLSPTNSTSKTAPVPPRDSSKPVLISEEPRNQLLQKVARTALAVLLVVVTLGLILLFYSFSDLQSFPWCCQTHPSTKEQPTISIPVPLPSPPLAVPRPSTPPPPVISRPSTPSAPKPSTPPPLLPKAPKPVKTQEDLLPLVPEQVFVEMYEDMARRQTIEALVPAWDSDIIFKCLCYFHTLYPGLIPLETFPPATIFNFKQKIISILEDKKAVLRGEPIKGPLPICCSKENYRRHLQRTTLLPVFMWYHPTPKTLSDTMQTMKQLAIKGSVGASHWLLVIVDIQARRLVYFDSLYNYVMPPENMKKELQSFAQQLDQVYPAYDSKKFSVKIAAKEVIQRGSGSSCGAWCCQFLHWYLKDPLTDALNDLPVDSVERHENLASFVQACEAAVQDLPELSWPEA
The experiment in a line: Inhibition of recombinant Chlamydia trachomatis DUB1 (130 to 401 residues) using Ub-Rh110Gly as fluorogenic substrate incubated for 60 mins by enzymatic analysis.

Series [2] addresses T2, Deubiquitinase and deneddylase Dub1 (Chlamydia trachomatis serovar L2 (strain ATCC VR-902B / DSM 19102 /434/Bu)) (UniProt B0B9A0).
T2 sequence (whole entry): T1 sequence (B0B9A0 whole entry)
In words: Inhibition of recombinant Chlamydia trachomatis DUB1 (130 to 401 residues) using Ub-Rh110Gly as fluorogenic substrate incubated for 60 mins by enzymatic analysis relative to control.

In a further series the test system is HeLa. The experiment in a line: Cytotoxicity against human HeLa cells assessed as cell viability at 4 to 256 ug/mL measured after 20 hrs by XTT assay. The series is classed as toxicity, cell-based. The following applies: dose 4-256 µg/ml.
The target of series [3] is T1, Deubiquitinase and deneddylase Dub1. In words: Binding affinity to recombinant Chlamydia trachomatis DUB1 (130 to 401 residues) assessed as inhibition constant using Ub-Rh110Gly as fluorogenic substrate incubated for 360 mins by Michaelis-Menten analysis.
Series [4] concerns the target T2, Deubiquitinase and deneddylase Dub1 (Chlamydia trachomatis serovar L2 (strain ATCC VR-902B / DSM 19102 /434/Bu)). The experiment in a line: Binding affinity to recombinant Chlamydia trachomatis DUB1 (130 to 401 residues) assessed as inactivation rate constant (Kinact) using Ub-Rh110Gly as fluorogenic substrate incubated for 360 mins by Michaelis-Menten analysis.

Series [5] shares this target. In words: Binding affinity to recombinant Chlamydia trachomatis DUB1 (130 to 401 residues) assessed as Kinact/Ki ratio using Ub-Rh110Gly as fluorogenic substrate incubated for 360 mins by Michaelis-Menten analysis.
The target of series [6] is T1, Deubiquitinase and deneddylase Dub1. In words: Inhibition of recombinant Chlamydia trachomatis DUB1 (130 to 401 residues) using Ub-Rh110Gly as fluorogenic substrate incubated for 360 mins by enzymatic analysis.
Series [7] has as its target T2, Deubiquitinase and deneddylase Dub1 (Chlamydia trachomatis serovar L2 (strain ATCC VR-902B / DSM 19102 /434/Bu)). In words: Non-covalent inhibition of recombinant Chlamydia trachomatis DUB1 (130 to 401 residues) using Ub-Rh110Gly as fluorogenic substrate incubated for 10 to 360 mins by enzymatic analysis. The note with it: time 10-360 min.
For series [8] the target is unchanged. The experiment in a line: Inhibition of recombinant Chlamydia trachomatis DUB1 (130 to 401 residues) using Ub-Rh110Gly as fluorogenic substrate at highest concentration incubated for 60 to 360 mins by enzymatic analysis. The note with it: time 60-360 min.
Series [9] addresses T1, Deubiquitinase and deneddylase Dub1. In words: Inhibition of recombinant Chlamydia trachomatis DUB1 (130 to 401 residues) using Ub-Rh110Gly as fluorogenic substrate incubated for 20 mins by enzymatic analysis.
For series [10] the target is unchanged. The experiment in a line: Inhibition of recombinant Chlamydia trachomatis DUB1 (130 to 401 residues) using Ub-Rh110Gly as fluorogenic substrate incubated for 2 mins by enzymatic analysis.
The subject of another series is Chlamydia trachomatis. In words: Anti-chlamydial activity against Chlamydia trachomatis serovar L2 infected in human HEp-2 cells assessed as inhibition of chlamydial inclusion incubated for 16 hrs by Alexa488/DAPI staining based immunofluorescence assay. The format is functional, organism-based. The following applies: serovar L2, HEp-2, 16 h.
The target of series [11] is T2, Deubiquitinase and deneddylase Dub1 (Chlamydia trachomatis serovar L2 (strain ATCC VR-902B / DSM 19102 /434/Bu)). The experiment in a line: Covalent inhibition of recombinant Chlamydia trachomatis DUB1 (130 to 401 residues) using Ub-Rh110Gly as fluorogenic substrate incubated for 10 to 360 mins by enzymatic analysis. The following applies: time 10-360 min.
Series [12] has the same target. In words: Inhibition of recombinant Chlamydia trachomatis DUB1 (130 to 401 residues) using Ub-Rh110Gly as fluorogenic substrate at 100 to 500 uM incubated for 20 to 240 mins by enzymatic analysis relative to control. The note with it: dose 100-500 µM, time 20-240 min.

As to `N#Cc1nccc(C(=O)NCc2c[nH]c3ccc(OCc4ccccc4)cc23)n1`, the figures for the Activity result with HEp-2 and in the series on HeLa were “Toxic” and “Non-toxic”, respectively. Besides, in series [1] (read-out: IC50), the IC50 came out at 2.9 µM. The inhibition in series [2] is 100%.

In the case of `N#Cc1nccc(C(=O)NCc2c[nH]c3ccccc23)n1`, the inhibitory constant (Ki) in series [3] came to 314 µM. Further, the IC50 in series [1] (read-out: IC50) was found to be 6.1 µM; in series [6], 1700 nM. For the same molecule, in series [4], the Kinact is 0.422 min⁻¹. Also, the Ratio in series [5] was 22.4 M⁻¹ s⁻¹. Regarding `COc1ccccc1CNC(=O)[C@H]1CC[C@H](CNC(=O)c2cnc(C#N)nc2)CC1`, in [1] (read-out: IC50), the IC50 was 122 µM. Consider `COc1ccc2[nH]cc(CNC(=O)c3ccnc(C#N)n3)c2c1`, for which the IC50 in series [1] (read-out: IC50) was 5.7 µM. For `N#Cc1nccc(C(=O)Nc2n[nH]c3ccccc23)n1`, the IC50 in series [1] (read-out: IC50) worked out at 23 µM. Also, the inhibition in [2] amounted to 100%. On the same counts, the results for `N#Cc1nccc(C(=O)NCc2n[nH]c3ccccc23)n1` are 19 µM and 100%. For the molecule `Cn1cc(CNC(=O)c2ccnc(C#N)n2)c2ccccc21`, the IC50 in series [1] (read-out: IC50) stood at 15 µM. Still for that read-out and setting: for `N#Cc1nccc(C(=O)NCc2c[nH]c3cc(OCc4ccccc4)ccc23)n1` the value was 15 µM; for `N#Cc1nccc(C(=O)Nc2cc[nH]n2)n1`, 23 µM. Take `N#Cc1ncc(C(=O)NCc2ccc(C(=O)NCc3ccccc3)c3ccccc23)cn1`: the inhibition result in series [7] was “Active”. Besides, the IC50 in series [1] (read-out: IC50) was determined as 10 µM. Also, the inhibition entry in series [8] is “Active; Complete Inhibition Was Not Achieved”. Regarding `Cn1ccc(NC(=O)c2ccnc(C#N)n2)n1`, the IC50 in series [1] (read-out: IC50) is 47 µM; in series [1] (read-out: pIC50 (converted)), 45.7 µM. Take `N#Cc1ncc(C(=O)N2CCc3cc(C(=O)NCc4ccccc4)ccc3C2)cn1`: the IC50 in series [1] (read-out: IC50) is 77 µM.

In the case of `N#Cc1nc(C(=O)NCc2c[nH]c3ccccc23)co1`, the Ki in series [3] was 117 µM. In addition, the Activity result in the series on HEp-2 and in the series with HeLa was “Toxic” throughout. The IC50 in series [9] was 3.1 µM; in series [10] it was 16 µM; in the series with Chlamydia trachomatis, 32.2 µg/mL (≈ 121 µM). For `N#Cc1nccc(NC(=O)Cc2c[nH]c3ccccc23)n1`, the IC50 in series [1] (read-out: IC50) amounted to 175 µM. As to `N#Cc1ncc(C(=O)NCc2cccc(C(=O)NCc3ccccc3)c2)cn1`, the IC50 in series [1] (read-out: IC50) stood at 22 µM. With `COc1ccc2c(CNC(=O)c3ccnc(C#N)n3)c[nH]c2c1`, the IC50 in [1] (read-out: IC50) was found to be 7.5 µM.

With `N#Cc1ncc(NC(=O)Cc2c[nH]c3ccccc23)cn1`, the IC50 in [1] (read-out: IC50) was determined as 93 µM. Regarding `N#Cc1nccc(C(=O)NCc2c[nH]c3cccc(OCc4ccccc4)c23)n1`, in series [1] (read-out: IC50), the IC50 stood at 184 µM. Consider `N#Cc1ncc(C(=O)NCc2ccc(C(=O)NCc3ccccc3)cc2)cn1`, for which the IC50 in [1] (read-out: IC50) is 27 µM. The inhibition entry in series [11] is “Active”. `N#Cc1nccc(C(=O)NCc2c[nH]c3c(OCc4ccccc4)cccc23)n1`: in series [1] (read-out: IC50), the IC50 amounted to 182 µM. Regarding `N#Cc1nccc(C(=O)NCc2ccn(C(=O)Cc3ccccc3)n2)n1`, the IC50 in series [1] (read-out: IC50) was found to be 23 µM. Besides, the inhibition in series [12] was 100%. Also, in series [11], the inhibition entry is “Active”.

Turning to `N#Cc1nccc(C(=O)NCCc2c[nH]c3ccccc23)n1`, the IC50 in series [1] (read-out: IC50) came to 23 µM.
